According to patent US20090239887A1, “Method of resolution and antiviral activity of 1,3-oxathiolane nucleoside enantiomers” (Emory University, priority 1990, published 2009):
Read-outs that look alike come from different tables or passages of the source. One block for each compound: values may come before it.

Columns and labels:
[1] = tested on: HIV-1 (strain LAV); experiment: microbe, parasite or virus in culture; type: cell-based
From the text: It is often desirable to screen a number of racemic mixtures of nucleosides as a preliminary step to determine which warrant further resolution into enantiomerically enriched components and evaluation of antiviral activity. The ability of nucleosides to inhibit HIV can be measured by various experimental techniques. The technique used herein, and described in detail below, measures the inhibition of viral replication in phytohemagglutinin (PHA) stimulated human peripheral blood mononuclear (PBM) cells infected with HIV-1 (strain LAV). The amount of virus produced is determined by measuring the virus-coded reverse transcriptase enzyme. The amount of enzyme produced is proportional to the amount of virus produced.
A. Three-day-old phytohemagglutinin-stimulated PBM cells (10^6 cells/ml) from hepatitis B and HIV-1 seronegative healthy donors were infected with HIV-1 (strain LAV) at a concentration of about 100 times the 50% tissue culture infectious dose (TICD 50) per ml and cultured in the presence and absence of various concentrations of antiviral compounds.
B. Approximately one hour after infection, the medium, with the compound to be tested (2 times the final concentration in medium) or without compound, was added to the flasks (5 ml; final volume 10 ml). AZT was used as a positive control.
C. The cells were exposed to the virus (about 2×10^5 dpm/ml, as determined by reverse transcriptase assay) and then placed in a CO2 incubator. HIV-1 (strain LAV) was obtained from the Center for Disease Control, Atlanta, Ga. The methods used for culturing the PBM cells, harvesting the virus and determining the reverse transcriptase activity were those described by McDougal et al. (J. Immun. Meth. 76, 171-183, 1985) and Spira et al. (J. Clin. Meth. 25, 97-99, 1987), except that fungizone was not included in the medium (see Schinazi, et al., Antimicrob. Agents Chemother. 32, 1784-1787 (1988); Id., 34:1061-1067 (1990)).
D. On day 6, the cells and supernatant were transferred to a 15 ml tube and centrifuged at about 900 g for 10 minutes. Five ml of supernatant were removed and the virus was concentrated by centrifugation at 40,000 rpm for 30 minutes (Beckman 70.1 Ti rotor). The solubilized virus pellet was processed for determination of the levels of reverse transcriptase. Results are expressed in dpm/ml of sampled supernatant. Virus from smaller volumes of supernatant (1 ml) can also be concentrated by centrifugation prior to solubilization and determination of reverse transcriptase levels.

[2] = target: reverse transcriptase activity; details: read-out: EC50, concentration required to reduce the reverse transcriptase activity by 50%; cited from earlier work
[3] = tested on: AZT-resistant, HIV isolates; details: isolates from patients treated with AZT for longer than 36 weeks; cited from earlier work
[4] = tested on: HIV; details: cited from earlier work
[5] = Human immunodeficiency virus 1, PBMC, comparison nucleosides, source not stated, read-out: EC50

EC50 ([1]; comparison nucleosides, source not stated, read-out: EC50): 170 nM
Structure (SMILES): Cc1cn([C@H]2CC[C@@H](CO)O2)c(=O)[nH]c1=O [DDT, 3′-dideoxythymidine, reference compound]

Structure (SMILES): Nc1nc2c(ncn2[C@H]2C=C[C@@H](CO)O2)c(=O)[nH]1 [(−)-enantiomer of carbovir, 2′,3′-didehydro-2′,3′-dideoxyguanosine]
EC50 [2]: 800 nM

Structure (SMILES): Nc1ccn(C2CSC(CO)O2)c(=O)n1 (racemic) [BCH-189 (±), 2-hydroxymethyl-5-(cytosin-1-yl)-1,3-oxathiolane, reference compound]
DPM/ml ([1]; 0.001 μM): 65,170 DPM/ml | DPM/ml ([1]; 0.005 μM): 62,595 DPM/ml | DPM/ml ([1]; 0.01 μM): 70,875 DPM/ml | DPM/ml ([1]; 0.05 μM): 77,650 DPM/ml | DPM/ml ([1]; 0.1 μM): 33,165 DPM/ml | DPM/ml ([1]; 0.5 μM): 10,765 DPM/ml | DPM/ml ([1]; 1 μM): 7,745 DPM/ml | DPM/ml ([1]; 5 μM): 6,800 DPM/ml | DPM/ml ([1]; 10 μM): 4,470 DPM/ml | EC50 ([1]; Human immunodeficiency virus 1, PBMC, human PBM cells infected with HIV-1, enantiomers isolated by chiral HPLC (Example 3), read-out: EC50): 81 nM | inhibition at 0.001 µM ([1]; Human immunodeficiency virus 1, PBMC, 0.001 μM, read-out: % Inhibition (Corrected)): 36.1% | inhibition at 0.005 µM ([1]; Human immunodeficiency virus 1, PBMC, 0.005 μM, read-out: % Inhibition (Corrected)): 38.9% | inhibition at 0.01 µM ([1]; Human immunodeficiency virus 1, PBMC, 0.01 μM, read-out: % Inhibition (Corrected)): 29.8% | inhibition at 0.05 µM ([1]; Human immunodeficiency virus 1, PBMC, 0.05 μM, read-out: % Inhibition (Corrected)): 22.3% | inhibition at 0.1 µM ([1]; Human immunodeficiency virus 1, PBMC, 0.1 μM, read-out: % Inhibition (Corrected)): 71.4% | inhibition at 0.5 µM ([1]; Human immunodeficiency virus 1, PBMC, 0.5 μM, read-out: % Inhibition (Corrected)): 96.2% | inhibition at 1 µM ([1]; Human immunodeficiency virus 1, PBMC, 1 μM, read-out: % Inhibition (Corrected)): 99.5% | inhibition at 5 µM ([1]; Human immunodeficiency virus 1, PBMC, 5 μM, read-out: % Inhibition (Corrected)): 101% | inhibition at 10 µM ([1]; Human immunodeficiency virus 1, PBMC, 10 μM, read-out: % Inhibition (Corrected)): 103% | replication of AZT-resistant HIV isolates [3]: inhibit the replication | activity against HIV compared with AZT [4]: approximately the same activity against HIV as AZT

Structure (SMILES): Nc1nc(=O)n(C2CSC(CO)O2)cc1F (single isomer, unassigned; (+)) [DLS-059 (+), (+)-2-hydroxymethyl-5-(5-fluorocytosin-1-yl)-1,3-oxathiolane]
DPM/ml ([1]; 0.001 μM, listed as FTC (+)): 94,340 DPM/ml | % Inhibition (Corrected) ([1]; 0.001 μM, listed as FTC (+), 0.001 µM): 3.8% | DPM/ml ([1]; 0.005 μM, listed as FTC (+)): 107,430 DPM/ml | % Inhibition (Corrected) ([1]; 0.005 μM, listed as FTC (+), 0.005 µM): −10.6% | DPM/ml ([1]; 0.01 μM, listed as FTC (+)): 99,465 DPM/ml | % Inhibition (Corrected) ([1]; 0.01 μM, listed as FTC (+), 0.01 µM): −1.8% | DPM/ml ([1]; 0.05 μM, listed as FTC (+)): 87,120 DPM/ml | % Inhibition (Corrected) ([1]; 0.05 μM, listed as FTC (+), 0.05 µM): 11.8% | DPM/ml ([1]; 0.1 μM, listed as FTC (+)): 86,340 DPM/ml | % Inhibition (Corrected) ([1]; 0.1 μM, listed as FTC (+), 0.1 µM): 12.7% | DPM/ml ([1]; 0.5 μM, listed as FTC (+)): 33,225 DPM/ml | % Inhibition (Corrected) ([1]; 0.5 μM, listed as FTC (+), 0.5 µM): 71.4% | EC50 ([1]; summary range, listed as (+)-enantiomer of FTC, read-out: EC50 against HIV): 280 to 840 nM

EC50 [1, 5]: 11 nM
Structure (SMILES): Nc1ccn([C@H]2CC[C@@H](CO)O2)c(=O)n1 [DDC, dideoxycytidine, reference compound]

EC50 [1, 5]: 180 to 460 nM
Structure (SMILES): [N-]=[N+]=N[C@H]1C[C@H](n2ccc(=O)[nH]c2=O)O[C@@H]1CO [AZDU, 3′-azido-2′,3′-dideoxyuridine, reference compound]
